What was measured:
skin = experiment: in vivo homing of phage displaying peptides to skin; set-up: species or system mice
Procedure: For in vivo panning of skin, two month old BALB/c nude mice were used to avoid contamination by hair. The mice were injected intravenously with phage as described above and, after perfusion through the heart, the skin was removed in large sections and placed on an ice cold plate with the hypodermis facing up. The skin was scraped with a scalpel to remove mostly hypodermis, which was then processed for phage recovery as described below.
(§1) Approximately 250 to 300 individual bacterial colonies containing phage recovered from the various organs or tissues were grown for 16 hr in 5 ml NZY/tet. In some experiments, approximately 1000 individual bacteria containing phage were picked and the phage were amplified in 2 ml of NZY/tet or the entire plate containing phage was scraped, pooled and grown in bulk and processed for injection. Where phage were cultured separately, the cultures were pooled and the phage were injected into mice or rats as described above for a second round of in vivo panning. In some experiments, a third or fourth round of panning was performed. Phage DNA was purified from individual bacterial colonies obtained and the DNA sequences encoding the peptides expressed by selected phage were determined (see Koivunen et al., supra, 1994b).
in After two or three rounds of in vivo panning of mice injected with a cyclic CX3CX3CX3C (SEQ ID NO: 25) phage display library, the peptide sequence CVALCREACGEGC (SEQ ID NO: 3), which appeared repeatedly in skin, was identified (Table 1). To determine the specificity of skin homing of the sequence CVALCREACGEGC (SEQ ID NO: 3), phage displaying the peptide was amplified individually, diluted to the same input titer and administered to mice. Following administration, control kidney and brain organ were removed and the number of TU of phage in skin, kidney and brain was determined.
Peptides that were identified more than one time during screening are indicated by an asterisk. For example, 14% of recovered CX3CX3CX3C (SEQ ID NO: 25) phage that homed to head skin had the sequence CVDVCCDGCPVCC (SEQ ID NO: 437). Phage having the sequence RVPLSGDVEH (SEQ ID NO: 438), LRVMSFTSGQ (SEQ ID NO: 439), or RFSVGSLFGS (SEQ ID NO: 440) each constituted 14% of recovered CX10C (SEQ ID NO: 30) phage that homed to head skin.

lung = experiment: in vivo homing of phage displaying peptides to lung; set-up: species or system mice; conditions: for % OF MOTIF AMONG ALL CLONES: LUNG; for LUNG/BRAIN RATIO: LUNG section; for enriched in lung over unselected phage: individually amplified phage, FIG. 2; for enrichment in lung as compared to unselected phage: mouse, in vivo
Procedure: For lung and pancreas, a mixture of phage libraries containing 10^10 TU was diluted in 200 μl DMEM and injected into the tail vein of anesthetized BALB/c mice (2 month old; Harlan Sprague Dawley; San Diego Calif.); AVERTIN (0.017 ml/g) was used as anesthetic (Pasqualini and Ruoslahti, supra, 1996). After 1-4 minutes, mice were snap frozen in liquid nitrogen or, after about 5 minutes of phage circulation, the mice were perfused through the heart with 5-10 ml of DMEM (SIGMA; St. Louis Mo.). To recover the phage, the organs from the perfused mice or partially thawed organs from snap frozen mice were collected and weighed, then were homogenized in 1 ml DMEM-PI (DMEM containing protease inhibitors (PI); phenylmethyl sulfonyl fluoride (PMSF; 1 mM), aprotinin (20 μg/ml), leupeptin (1 μg/ml)).
(§2) Organ samples were washed 3 times with ice cold DMEM-PI containing 1% bovine serum albumin (BSA), then directly incubated with 1 ml K91-kan bacteria for 1 hr. Ten ml NZY medium containing 0.2 μg/ml tetracycline (NZY/tet) was added to the bacterial culture, the mixture was incubated in a 37° C. shaker for 1 hr, then 200 μl aliquots were plated in agar plates containing 40 μg/ml tetracycline (tet/agar).
as §1
After two or three rounds of in vivo panning of mice injected with a cyclic CX3CX3CX3C (SEQ ID NO: 25) or a cyclic CX6C (SEQ ID NO: 26) phage display library, four peptides that homed to lung were identified.
To determine the specificity of lung homing of the individual peptides identified, phage displaying the peptides were amplified individually, diluted to the same input titer and administered to mice. Following administration, control kidney and brain organ was removed and the number of TU of phage in lung, kidney and brain was determined. The results shown in FIG. 2 reveal that 10× and 35× more phage having the peptide sequence CGFECVRQCPERC (SEQ ID NO: 1; GFE-1) bound to lung than to kidney and brain, respectively. […] The lung homing peptides CGFECVRQCPERC (SEQ ID NO: 1; GFE-1), CGFELETC (SEQ ID NO: 2; GFE-2), CTLRDRNC (SEQ ID NO: 15) and CIGEVEVC (SEQ ID NO: 16) are enriched in lung at 35×, 9×, 6× and 5×, respectively, over unselected phage (see FIG. 2).

ovary = experiment: in vivo panning of X7 library, ovary; set-up: species or system mice; conditions: for ovary/brain enrichment ratio: OVARY section, ovary as compared to brain; for % OF MOTIF AMONG ALL CLONES: OVARY, of 40 clones sequenced; for enrichment in ovary as compared to brain: mouse, in vivo
Procedure: (§3) Following various in vivo panning screens, hundreds of thousands to millions of phage expressing homing peptides were recovered from the respective organ or tissue. Generally, the phage collected from a round of in vivo panning were plated on agar, about 250 to 300 clones were selected, grown in 5 ml cultures, then pooled and readministered for a subsequent round of in vivo panning (“regular method”). However, in some experiments, 1000 clones were selected, grown in 2 ml cultures, then pooled and administered for a subsequent round of screening; or the entire agar plate was scraped and all of the phage were cultured together and administered for a subsequent round of screening. The peptide inserts of various isolated phage were determined such that, of the millions of phage that homed, only a small number of sequences were identified.
Also provided are ovary homing peptides such as RVGLVAR (SEQ ID NO: 11) and EVRSRLS (SEQ ID NO: 10), which were identified by injection of an X7 (SEQ ID NO: 29) library into mice (Table 8). The peptides were isolated by the regular method.
as §2, §1

retina = experiment: in vivo homing of phage displaying peptides to retina, coinjected with control phage fdAMPLAY88; set-up: species or system rats; conditions: for enrichment in retina: injected individually with control fdAMPLAY88 phage; for enrichment in retina compared to control fdAMPLAY88 phage: rat, in vivo
Procedure: For in vivo panning of retina, two month old female Simonson Albino rats were used to provide larger tissue samples than mice. The rats were anesthetized with phenobarbital (50 mg/kg body weight), and, while under deep anesthesia, the abdominal cavity of the rats was opened and 10^10 TU of a phage library was injected into the left ventricle of the heart through the diaphragm. After 2-5 minutes of phage circulation, the eyes were removed, then washed once in 70% EtOH and once in PBS. The anterior chamber, with cornea and lens, was removed and the retina was peeled from the remaining posterior chamber. The tissue was weighed, homogenized with a syringe bulb in 1 ml of ice cold DMEM containing protease inhibitors (1 mM PMSF, 20 μg/ml aprotinin and 1 μg/ml of leupeptin; all from SIGMA; St. Louis Mo.). The tissue was washed 3 times with 1 ml of DMEM and the phage were rescued as described below.
as §1
Rats injected with a cyclic CX7C (SEQ ID NO: 24) phage display library were subjected to in vivo panning and, after three rounds, the peptide sequences CSCFRDVCC (SEQ ID NO: 5) and CRDVVSVIC (SEQ ID NO: 6) were identified in retina. Because of small tissue sample size, the phage isolated could not be accurately quantitated. Thus, the selectivity of phage displaying the peptides was determined by individually amplifying the phage displaying the sequence and administering the phage to rats with a control phage fdAMPLAY88. This fd-ampicillin phage is similar to fd-tetracycline (fuse 5-based) in that it has the same infectivity.
Rats were injected with an equal amount of the CSCFRDVCC (SEQ ID NO: 5) or CRDVVSVIC (SEQ ID NO: 6) and the fdAMPLAY88 phage. Following administration, homing to retina was evaluated by comparing the number of TU of the selected phage on tetracycline plates and fdAMPLAY88 on ampicillin plates recovered from retina.

prostate = experiment: in vivo panning of X7 library, prostate; set-up: species or system mice; conditions: for % OF MOTIF AMONG ALL CLONES: PROSTATE; for prostate/brain homing ratio: PROSTATE section, prostate as compared to brain; for enrichment in homing to prostate as compared to brain: mouse, in vivo
Procedure: as §3
The invention also provides prostate homing peptides such as SMSIARL (SEQ ID NO: 21) and VSFLEYR (SEQ ID NO: 22), which were identified by injection of an X7 (SEQ ID NO: 29) library into mice (Table 7). The peptides were isolated by the regular method.
as §2, §1

gut = experiment: in vivo panning of X7 library, gut; set-up: species or system mice; conditions: for gut/brain enrichment ratio: GUT section, gut as compared to brain; for % OF MOTIF AMONG ALL CLONES: GUT, of 40 clones sequenced
Procedure: as §3
The invention also provides gut homing peptides such as YSGKWGK (SEQ ID NO: 9) and YSGKWGW (SEQ ID NO: 156), which were identified by injection of an X7 (SEQ ID NO: 29) library into mice (Tables 1 and 4) and differ only in the last amino acid position. The peptides were isolated by the regular method. The gut homing peptide YSGKWGK (SEQ ID NO: 9) was present in 22% of 40 clones sequenced and was enriched 30-fold in gut as compared to brain (Table 1). In addition, gut homing peptides such as QVRRVPE (SEQ ID NO: 155) and VRRGSPQ (SEQ ID NO: 164), which share a VRR motif, were identified, as were the peptides VRRGSPQ (SEQ ID NO: 164), GGRGSWE (SEQ ID NO: 167) and FRVRGSP (SEQ ID NO: 169), which share an RGS motif.
as §2, §1

RFSVGSLFGS [peptide from phage recovered from skin]
% of recovered CX10C phage that homed to head skin (skin; head skin): 14%

CLRPYLNC [peptide from phage recovered from lung]
% OF MOTIF AMONG ALL CLONES (lung): 10% | LUNG/BRAIN RATIO (lung): 6

RVGLVAR [peptide from phage recovered from ovary]
ovary/brain enrichment ratio (ovary): 5 | % OF MOTIF AMONG ALL CLONES (ovary): 22% | enrichment in ovary as compared to brain (ovary): 5 fold

CSCFRDVCC [retina homing peptide]
enrichment in retina (retina): 3 fold | enrichment in retina compared to control fdAMPLAY88 phage (retina): 3 ×

CVDVCCDGCPVCC [peptide from phage recovered from skin]
% of recovered CX3CX3CX3C phage that homed to head skin (skin; head skin): 14%

RGRWLAL [peptide from phage recovered from prostate]
% OF MOTIF AMONG ALL CLONES (prostate): 6%

CRLRSYGTLSLC [peptide from phage recovered from lung]
% OF MOTIF AMONG ALL CLONES (lung): 5% | LUNG/BRAIN RATIO (lung): 0.4

CRDVVSVIC [retina homing peptide]
enrichment in retina (retina): 2 fold | enrichment in retina compared to control fdAMPLAY88 phage (retina): 2 ×

YSGKWGK [gut homing peptide]
gut/brain enrichment ratio (gut): 30 | % OF MOTIF AMONG ALL CLONES (gut): 22% | enriched in gut as compared to brain (gut; mouse, in vivo): 30 fold

CKWSRLHSC [peptide from phage recovered from lung]
% OF MOTIF AMONG ALL CLONES (lung): 11% | LUNG/BRAIN RATIO (lung): 3

SRRQPLS [peptide from phage recovered from gut]
gut/brain enrichment ratio (gut): 2 | % OF MOTIF AMONG ALL CLONES (gut): 11%

MSPQLAT [peptide from phage recovered from gut]
% OF MOTIF AMONG ALL CLONES (gut): 11%

EVRSRLS [peptide from phage recovered from ovary]
ovary/brain enrichment ratio (ovary): 3 | % OF MOTIF AMONG ALL CLONES (ovary): 22% | enrichment in ovary as compared to brain (ovary): 3 fold

CSSGCSKNCLEMC [peptide from phage recovered from skin]
skin/brain phage ratio (skin; SKIN section): 2

CRPWHNQAHTEC [peptide from phage recovered from lung]
% OF MOTIF AMONG ALL CLONES (lung): 14% | LUNG/BRAIN RATIO (lung): 5

LRVMSFTSGQ [peptide from phage recovered from skin]
% of recovered CX10C phage that homed to head skin (skin; head skin): 14%

CTVNEAYKTRMC [peptide from phage recovered from lung]
% OF MOTIF AMONG ALL CLONES (lung): 22% | LUNG/BRAIN RATIO (lung): 3

CGKRYRNC
% OF MOTIF AMONG ALL CLONES (lung): 5% | LUNG/BRAIN RATIO (lung): 5

CGATCEMQCPSGC [peptide from phage recovered from skin]
% of recovered CX3CX3CX3C phage, homing to tail skin (skin; tail skin): 12%

CERVVGSSC [peptide from phage recovered from lung]
% OF MOTIF AMONG ALL CLONES (lung): 9% | LUNG/BRAIN RATIO (lung): 4

CWRGDRKIC [peptide from phage recovered from lung]
% OF MOTIF AMONG ALL CLONES (lung): 8% | LUNG/BRAIN RATIO (lung): 2

VSFLEYR [peptide from phage recovered from prostate]
% OF MOTIF AMONG ALL CLONES (prostate): 6% | prostate/brain homing ratio (prostate): 17 | enrichment in homing to prostate as compared to brain (prostate): 17 fold

CTLRDRNC [lung homing peptide]
% OF MOTIF AMONG ALL CLONES (lung): 10% | LUNG/BRAIN RATIO (lung): 8 | enriched in lung over unselected phage (lung): 6 × | enrichment in lung as compared to unselected phage (lung): 8 fold

CIGEVEVC [peptide from phage recovered from lung]
% OF MOTIF AMONG ALL CLONES (lung): 5% | LUNG/BRAIN RATIO (lung): 6 | enriched in lung over unselected phage (lung): 5 × | enrichment in lung as compared to unselected phage (lung): 6 fold

GISALVLS
% OF MOTIF AMONG ALL CLONES (gut): 11%

CLAKENVVC [peptide from phage recovered from lung]
% OF MOTIF AMONG ALL CLONES (lung): 13% | LUNG/BRAIN RATIO (lung): 2

RVPLSGDVEH [peptide from phage recovered from skin]
% of recovered CX10C phage that homed to head skin (skin; head skin): 14%

SMSIARL [peptide from phage recovered from prostate]
% OF MOTIF AMONG ALL CLONES (prostate): 6% | prostate/brain homing ratio (prostate): 34 | enrichment in homing to prostate as compared to brain (prostate): 34 fold

From patent publication US6784153B1, “Methods of homing molecules to lung using membrane dipeptidase” (The Burnham Institute, priority 1998, dated 2004)
